Source: article PMC5025651, “Reprofiled anthelmintics abate hypervirulent stationary-phase Clostridium difficile” (Scientific Reports, 2016)
In brackets after ≈: the same amount, converted by molar mass. Where two headings read alike, the source gives them in different places.

How the values were obtained:
[1] = system: B. fragilis Strain CL05T00C42; test: MIC by broth microdilution; type: cell-based; settings: Bacteroides fragilis; B. fragilis CL05T00C42; supplemented Brucella broth, anaerobic; duplicate; read-out: MIC
P. nigrescens ATCC 33563 = test: MIC by broth microdilution; type: cell-based; settings: Prevotella nigrescens, ATCC33563; P. nigrescens ATCC 33563; supplemented Brucella broth, anaerobic; duplicate; read-out: MIC
B. subtilis ATCC 6051 = test: MIC by broth microdilution; type: cell-based; settings: Bacillus subtilis, ATCC6051; B. subtilis ATCC 6051; CAMHB, aerobic; duplicate; read-out: MIC
S. aureus RN4220 = test: MIC by broth microdilution; type: cell-based; settings: Staphylococcus aureus, CAMHB, aerobic, duplicate
[2] = system: B. longum subsp. longum Strain 44B; test: MIC by broth microdilution; type: cell-based; settings: Bifidobacterium longum; B. longum subsp. longum 44B; LSM broth, anaerobic; duplicate; read-out: MIC
[3] = system: L. johnsonii Strain 135-1-CHN; test: MIC by broth microdilution; type: cell-based; settings: Lactobacillus johnsonii, STRAIN1351CHN; L. johnsonii 135-1-CHN; CAMHB with 5% laked horse blood, ~48 h; duplicate; read-out: MIC
P. distasonis ATCC 8503 = test: MIC by broth microdilution; type: cell-based; settings: Parabacteroides distasonis, ATCC8503; P. distasonis ATCC 8503; supplemented Brucella broth, anaerobic; duplicate; read-out: MIC
[4] = system: C. difficile isolate 20100584 (ribotype 014); test: MIC by broth microdilution; type: cell-based, Clostridium difficile; settings: Clostridioides difficile; isolate 20100584, ribotype 014; duplicate; read-out: MIC
Hemolysis assay = type: cell-based; settings: sheep, sheep red blood cells (3% suspension), pH 7.4; 32 µg/mL, 1 h, 37 °C; 1% Triton X-100 positive control; triplicate; read-out: Hemolysis (%)
Description: Sheep red blood cells (Innovative Research, Novi, MI, USA) were washed three times with PBS pH 7.4. A 3% cell suspension in PBS (100 μL) was added to test compounds in PBS (100 μL, to a final concentration of 32 μg/mL), and then incubated at 37 °C for 1 h. The plate was centrifuged at 500 × g for 10 min, and supernatants (100 μL) were transferred to a clean 96-well plate. Hemolysis was determined by measuring absorbance at 540 nm, with 1% Triton X-100 as the positive control and 0.5% DMSO in PBS as the negative control. Hemolysis assays were performed in triplicate.

[5] = system: C. difficile strain 4118 (CD4118, ATCC BAA-1870, ribotype 027); test: MIC by broth microdilution; type: cell-based, Clostridium difficile; settings: Clostridioides difficile, ATCCBAA1870; BHIS broth, anaerobic, 20–24 h, n = 2; read-out: MIC C. difficile 4118
[6] = system: C. difficile isolate 20120016 (ribotype 019); test: MIC by broth microdilution; type: cell-based, Clostridium difficile; settings: Clostridioides difficile; isolate 20120016, ribotype 019; duplicate; read-out: MIC
[7] = system: B. thetaiotaomicron ATCC 29148; test: microbe, parasite or virus in culture; type: cell-based; settings: Bacteroides thetaiotaomicron, ATCC29148
[8] = system: L. reuteri Strain CF48-3A; test: MIC by broth microdilution; type: cell-based, Lactobacillus reuteri; settings: Limosilactobacillus reuteri; L. reuteri CF48-3A; CAMHB with 5% laked horse blood, ~48 h; duplicate; read-out: MIC
S. epidermidis 1457 = test: MIC by broth microdilution; type: cell-based; settings: Staphylococcus epidermidis; S. epidermidis 1457; CAMHB, aerobic; duplicate; read-out: MIC
[9] = system: C. difficile isolate 20110740 (ribotype 018); test: MIC by broth microdilution; type: cell-based, Clostridium difficile; settings: Clostridioides difficile; isolate 20110740, ribotype 018; duplicate; read-out: MIC
[10] = system: C. difficile isolate 20110973 (ribotype 106); test: MIC by broth microdilution; type: cell-based, Clostridium difficile; settings: Clostridioides difficile; isolate 20110973, ribotype 106; duplicate; read-out: MIC
[11] = system: C. difficile isolate 20110986 (ribotype 078); test: MIC by broth microdilution; type: cell-based, Clostridium difficile; settings: Clostridioides difficile; isolate 20110986, ribotype 078; duplicate; read-out: MIC
[12] = system: C. difficile isolate 20110960 (ribotype 017); test: MIC by broth microdilution; type: cell-based, Clostridium difficile; settings: Clostridioides difficile; isolate 20110960, ribotype 017; duplicate; read-out: MIC
[13] = system: C. difficile isolate 20100422 (ribotype 054); test: MIC by broth microdilution; type: cell-based, Clostridium difficile; settings: Clostridioides difficile; isolate 20100422, ribotype 054; duplicate; read-out: MIC
[14] = system: C. difficile isolate 20121190 (ribotype 126); test: MIC by broth microdilution; type: cell-based, Clostridium difficile; settings: Clostridioides difficile; isolate 20121190, ribotype 126; duplicate; read-out: MIC
[15] = system: C. difficile isolate 20110869 (ribotype 001_072); test: MIC by broth microdilution; type: cell-based, Clostridium difficile; settings: Clostridioides difficile; isolate 20110869, ribotype 001_072; duplicate; read-out: MIC
A. baumannii M2 = test: MIC by broth microdilution; type: cell-based; settings: Acinetobacter baumannii; A. baumannii M2; CAMHB, aerobic; duplicate; read-out: MIC
[16] = system: C. difficile isolate 20110961 (ribotype A12); test: MIC by broth microdilution; type: cell-based, Clostridium difficile; settings: Clostridioides difficile; isolate 20110961, ribotype A12; duplicate; read-out: MIC
C. difficile strain 4118 [17] = test: Minimum bactericidal concentration (MBC), logarithmic- and stationary-phase cells; type: cell-based, Clostridium difficile; settings: 20–24 h; for MBC: Clostridioides difficile, 4118, n = 2
Description: The procedure for MBC determination was adapted from that of Alam et al.[44]. Briefly, a single overnight colony of C. difficile strain 4118 (streaked onto blood agar plate) was suspended in BHIS and grown to OD600 ~ 0.4–0.5 (logarithmic phase) or for 24 h (stationary phase). In 96-well microtiter plates, cultures were added to two-fold serial dilutions of test compounds in BHIS and incubated for 20–24 h at 37 °C in an anaerobic chamber. […] MBC measurements were performed in duplicate.

16 C. difficile isolates = test: MIC by broth microdilution, summary over 16 C. difficile isolates; type: cell-based, Clostridium difficile; settings: n = 2
[18] = system: C. difficile isolate 20111163 (ribotype 024); test: MIC by broth microdilution; type: cell-based, Clostridium difficile; settings: Clostridioides difficile; isolate 20111163, ribotype 024; duplicate; read-out: MIC
[19] = system: C. difficile isolate 20110742 (ribotype 002); test: MIC by broth microdilution; type: cell-based, Clostridium difficile; settings: Clostridioides difficile; isolate 20110742, ribotype 002; duplicate; read-out: MIC
[20] = system: C. difficile isolate 20110566 (ribotype 020); test: MIC by broth microdilution; type: cell-based, Clostridium difficile; settings: Clostridioides difficile; isolate 20110566, ribotype 020; duplicate; read-out: MIC
C. difficile strain 4118 [21] = test: Time-kill kinetics against stationary-phase cultures; type: cell-based, Clostridium difficile; settings: 16× MIC (metronidazole 4 μg/mL, vancomycin 32 μg/mL), up to 24 h
Description: At t = 0, 3, 6 and 24 h, sample aliquots were withdrawn from the treated cultures and bacterial viability was scored by plating serial dilutions on BHIS agar plates. The agar plates were incubated in the anaerobic chamber for 20–24 h at 37 °C. Kinetic experiments were performed at least twice.

[22] = system: B. breve Strain EX336960VC19; test: MIC by broth microdilution; type: cell-based; settings: Bifidobacterium breve; B. breve EX336960VC19; LSM broth, anaerobic; duplicate; read-out: MIC
[23] = system: C. clostridioforme ATCC 25537; test: MIC by broth microdilution; type: cell-based, Clostridium clostridioforme; settings: Clostridium, ATCC25537; C. clostridioforme ATCC 25537; BHIS, anaerobic; duplicate; read-out: MIC

For `Cc1ncc([N+](=O)[O-])n1CCO` [Metronidazole, metronidazole], the MIC [1] was 0.5 µg/mL (≈ 2.92 µM), the MIC (P. nigrescens ATCC 33563) was 2 µg/mL (≈ 11.7 µM) and the MIC (B. subtilis ATCC 6051) was greater than 32 µg/mL. The MIC (S. aureus RN4220) was greater than 32 µg/mL, the MIC [2] was 4 to 8 µg/mL (≈ 23.4 to 46.7 µM) and the MIC [3] was greater than 32 µg/mL. For the same compound, the MIC (P. distasonis ATCC 8503) was 2 µg/mL (≈ 11.7 µM), the MIC [4] was 0.25 µg/mL (≈ 1.46 µM) and the hemolysis at 1 h, 32 µg/mL (Hemolysis assay) was less than 1%. The MIC [5] was 0.25 µg/mL (≈ 1.46 µM), the MIC [6] was 0.25 µg/mL (≈ 1.46 µM) and the MIC [7] was 1 µg/mL (≈ 5.84 µM). It also gave an MIC [8] greater than 32 µg/mL, an MIC (S. epidermidis 1457) greater than 32 µg/mL and an MIC [9] of 0.25 µg/mL (≈ 1.46 µM). The MIC [10] was 0.25 µg/mL (≈ 1.46 µM), the MIC [11] was 0.13 to 0.25 µg/mL (≈ 0.76 to 1.46 µM) and the MIC [12] was 0.25 µg/mL (≈ 1.46 µM). The MIC [13] was 0.25 µg/mL (≈ 1.46 µM), the MIC [14] was 0.13 µg/mL (≈ 0.76 µM) and the MIC [15] was 0.25 µg/mL (≈ 1.46 µM). It also gave an MIC (A. baumannii M2) greater than 32 µg/mL, an MIC [16] of 0.25 µg/mL (≈ 1.46 µM) and an MBC (C. difficile strain 4118 [17]; minimum bactericidal concentration (≥3-log reduction) for logarithmic-phase cells, read-out: MBClog) greater than 32 µg/mL. For the same compound, the MBC (C. difficile strain 4118 [17]; minimum bactericidal concentration (≥3-log reduction) for stationary-phase cells, read-out: MBCstat) was greater than 32 µg/mL, the “log reduction of CD4118 stationary-phase cells” value (C. difficile strain 4118 [17]; at 32 μg/mL) was less than 3 log and the MIC50 (16 C. difficile isolates; Clostridioides difficile, MIC at which 50% of the 16 isolates are inhibited, read-out: MIC50) was 0.25 µg/mL (≈ 1.46 µM). For the same compound, the MIC90 (16 C. difficile isolates; Clostridioides difficile, MIC at which 90% of the 16 isolates are inhibited, read-out: MIC90) was 0.25 µg/mL (≈ 1.46 µM), the “MIC Range” value (16 C. difficile isolates; range over 16 C. difficile isolates) was 0.13 to 0.25 µg/mL and the MIC [18] was 0.13 µg/mL (≈ 0.76 µM). For the same compound, the MIC [19] was 0.13 µg/mL (≈ 0.76 µM), the MIC [20] was 0.25 µg/mL (≈ 1.46 µM) and the “log killing of CD4118 stationary-phase cells” value (C. difficile strain 4118 [21]) was less than 3 log. It also gave an MIC [22] greater than 32 µg/mL and an MIC [23] of 0.06 µg/mL (≈ 0.351 µM).
